In US5474996A, “Pyrimidine derivatives” (Roussel Uclaf, priority 1991, dated 1995):

Biological target: T1, Angiotensin II Receptor (Rattus norvegicus, UniProt P25095)
T1 construct: A fresh membrane preparation obtained from rat's liver was used; from tissue; host or cells: rat liver, fresh membrane preparation
T1 sequence (P25095 1-359): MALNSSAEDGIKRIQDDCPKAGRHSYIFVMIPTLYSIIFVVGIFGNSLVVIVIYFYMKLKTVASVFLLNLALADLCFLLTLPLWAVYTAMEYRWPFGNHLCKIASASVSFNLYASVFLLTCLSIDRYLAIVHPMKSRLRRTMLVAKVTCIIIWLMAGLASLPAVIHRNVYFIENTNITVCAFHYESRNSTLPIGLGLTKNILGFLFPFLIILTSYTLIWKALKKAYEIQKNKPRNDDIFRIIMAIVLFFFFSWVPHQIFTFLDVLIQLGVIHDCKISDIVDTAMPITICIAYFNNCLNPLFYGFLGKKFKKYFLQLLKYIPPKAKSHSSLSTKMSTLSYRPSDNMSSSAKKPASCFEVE
Test: Test on the Angiotensin II Receptor: displacement of 125I angiotensin II from a fresh rat liver membrane preparation
Assay type: binding
Conditions: rat liver membranes; 125I angiotensin II (25,000 DPM/tube); Tris buffer pH 7.4; 25° C. for 150 minutes; 7 concentrations; read-out: 50% inhibiting concentration (IC50), concentration necessary to displace 50% of the radioactivity specifically fixed on the receptor
Procedure: A fresh membrane preparation obtained from rat's liver was used and the tissue was ground in a polytron in a Tris 50mMpH 7.4 buffer. The grinding was followed by 3 centrifugations at 30,000 g for 15 minutes with intermediate collection of pellets in the Tris buffer pH 7.4. The last pellets were suspended in an incubation buffer (Tris 20 mM, NaCl […], KCl 10 mM, glucose 5 mM, MgCl2 10 mM, PMSF 0.3 mM, bacitracin 0.1 mM, BSA 0.2%). The 2 ml of aliquoted fractions were distributed in hemolysis tubes and ^125 I angiotensin II (25,000 DPM/tube) and the product to be studied were added. The product was first tested at 3×10^-5 M in triplicate. When the product to be tested displaced more than 50% of the radioactivity specifically linked to the receptor, it was tested again in a range of 7 concentrations to determine the concentration which inhibited 50% of the radioactivity specifically linked to the receptor. In this way, the 50% inhibiting concentration was determined.
The non-specific bond was determined by the addition of the product of Example 94 of the European Patent No. 0,253,310, at 10^-5 M (in triplicate). Incubation took place at 25° C. for 150 minutes, followed by returning to a water bath at 0° C. for 5 minutes, vacuum filtration, rinsing with Tris buffer pH 7.4 and counting the radioactivity in the presence of scintilling Triton. […]

## CCCCc1nc(Cl)c(CC(=O)O)c(Cc2ccc(-c3ccccc3C(=O)O)cc2)n1 [Example 8, 2-butyl-4-[(2'-carboxy-(1,1'-biphenyl)-4-yl)-methyl)-6-chloro-5-pyrimidineacetic acid]
  IC50: 242 nM
